Measurements from patent US6797721B2, “Phorboxazole derivatives for treating cancer” (Parker Hughes Institute, priority 1999, dated 2004).

What was measured:
U373 glioblastoma cells = assay: Matrigel invasion assay (Boyden chambers); type: cell-based; settings: Homo sapiens, U373 MG; cells treated 72 hours; invasion 48 hours; read-out: IC50, inhibition of glioblastoma cell invasion through Matrigel
Description: The in vitro invasiveness of human brain tumor cell lines U-373 MG and breast cancer cell lines BT-20 and MDA-MB-231 cells was assayed using a previously published method which employs Matrigel™-coated Costar 24-well transwell cell culture chambers (“Boyden chambers”) with 8.0-μm-pore polycarbonate filter inserts (Albini,et.al, 1987, Cancer Res., 47:3239-3245). The chamber filters were coated with 50 μg/ml of Matrigel™ matrix, incubated overnight at room temperature under a laminar flow hood and stored at 4° C. Matrigel™ matrix is made up of several components of the extracellular matrix (ECM), including collagen, laminin and proteo-glycans. The cancer cells were incubated with 500, 250, 125, 62.5, and 31.2 nM concentrations of the synthetic Phorboxazole compounds for 72 hours.
On the day of the experiment, the coated inserts were rehydrated with 0.5 ml serum-free DMEM containing 0.1% bovine serum albumin for 1-2 hours. The treated cells were trypsinized, washed twice with serum-free DMEM containing BSA, counted and resuspended at 1×10^5 cells/ml. A 0.5 ml cell suspension containing 5×10^4 cells in a serum-free DMEM was added to the Matrigel™-coated and rehydrated filter inserts. A volume of 750 μl of NIH fibroblast conditioned medium was placed as a chemoattractant in 24-well plates and the inserts were placed in wells and incubated at 37° C. for 48 hours.
The invasive cells that migrated to the lower side of the filter were fixed, stained with Hema-3 solutions and counted under microscope. Five to 10 random fields per filter were counted to determine the mean (±SE) values for the invasive fraction. The invasive fractions of cells treated with phorboxazole A derivatives were compared to those of DMSO treated control cells and the percent inhibition of invasiveness was determined using the formula: [formula]
Each treatment condition was evaluated in duplicate in 3 independent experiments. IC50 values were calculated by non-linear regression analysis using Graphpad Prisin Software Version 2.0 (Graphpad Software Inc., San Diego, Calif.).

[1] = test system: HS-SULTAN (multiple myeloma); assay: MTT cytotoxicity assay, HS-SULTAN; type: cell-based; settings: Homo sapiens
[2] = test system: MDA-MB-231 breast cancer cells; assay: In vitro adhesion assay to ECM proteins, MDA-MB-231; type: cell-based, human; settings: laminin-, fibronectin-, and collagen-coated plates, 0.1 μM to 1 μM for 24 hours
Description: Human brain tumor cell lines U-373 MG and breast cancer cell lines BT-20 and MDA-MB-231 were obtained from American Type Culture Collection (ATCC, Rockville, Md.) and maintained in liquid culture using DMEM supplemented with 10% fetal bovine serum and antibiotics. Fibroblast conditioned medium was used as a source of chemoattractant in vitro invasion assays. Conditioned medium was prepared as described in the literature (Albini et.al., 1987, Cancer Res., 47:3239-3245).
In vitro adhesion assays were performed to (a) study the baseline adhesive properties of various breast cancer and glioblastoma cell lines and (b) evaluate the effects of phorboxazole A derivatives on the adhesive properties of breast cancer and glioblastoma cells. The plates for the adhesion assays were precoated with the extracellular matrix proteins laminin, fibronectin, or type IV collagen (each at a final concentration of 1 μg/ml in PBS) overnight at 4° C. and dried. On the day of the experiment, the wells were rehydrated and blocked with 10% bovine serum albumin in PBS for 1 hour at room temperature and used for the adhesion assays, as described below.
The effects of synthetic phorboxazole A and specific derivatives on adhesion of breast cancer and glioblastoma cells was studied. Exponentially growing cells in DMEM were incubated with phorboxazole compounds or genistein as a control at concentrations ranging from 0.1 μM to 1 μM for 24 hours in a humidified 5% CO2 atmosphere. DMSO (0.1%) was included as a vehicle control. After treatment, cells were detached from the flasks with 0.05% trypsin (Life Technologies) resuspended in DMEM, incubated at 37° C. for 2 hours to allow them to recover from the trypsinization stress and examined for their ability to adhere to plates precoated with ECM proteins.
In adhesion assays, cells were centrifuged, washed twice with serum-free DMEM, counted and resuspended in serum-free DMEM to a final concentration of 2.5×10^5 cells/ml. […] The adherent fraction was quantitated using MTT (3-[4,5-dimethylthiazol-2-yl]-2,5-diphenyltetrazolium bromide) assays. […] The absorbance of each well was measured in a microplate reader (Labsystems) at 540 nm and a reference wavelength of 690 nm.
To translate the OD540 values into the number of cells in each well, the OD540 values were compared to those on standard OD540-versus-cell number curves generated for each cell line. The adherent fractions of cells treated with phorboxazole A derivatives were compared to those of DMSO-treated control cells and the percent inhibition of adhesion was determined using the formula: [formula]
Each treatment condition was evaluated in duplicate in 3 independent experiments. The IC50 values were calculated by non-linear regression analysis. […]

[3] = test system: BT-20 human breast cancer cells; assay: Clonogenic assay, BT-20; type: cell-based; settings: 7 days
Description: The growth-inhibiting activity of the synthetic Phorboxazole A and the synthesized derivatives was tested in clonogenic assays. Cancer cells were treated with 1 nM, 10 nM, and 100 nM doses of synthetic Phorboxazole A or derivatives of phorboxazole A. Treated cells included U373 human glioblastoma cells, NALM-6, human B-lineage acute lymphoblastic leukemia cells, and BT-20 human breast cancer cells. The cancer cells were resuspended in clonogenic medium consisting of alpha-MEM supplemented with 0.9% methylcellulose, 30% fetal bovine serum, and 50 μM 2-mercaptoethanol. Cells were plated in duplicate Petri dishes at 100,000 cells/mL/dish and cultured in a humidified 5% CO2 incubator for 7 days. Cancer cell colonies were enumerated on a grid using an inverted phase microscope of high optical resolution. Results were expressed as % inhibition of clonogenic cells at a particular concentration of the test agent using the formula:
% Inhibition=(1−Mean # of colonies [Test]/Mean # of colonies [Control]×100.

C=C1C[C@@H]2C[C@@H]3C[C@@H](O)C[C@@H](O3)c3coc(n3)/C=C/C[C@H]3O[C@@H](/C(C)=C/c4coc(C[C@]5(O)C[C@H](OC)C[C@H]([C@H](O)/C=C(C)/C=C/[C@@H](C/C=C/Br)OC)O5)n4)[C@H](C)[C@@H](OC(=O)/C=C\C[C@@H](C1)O2)[C@H]3C [Compound 1, Phorboxazole A]
IC50 (U373 glioblastoma cells): < 31.2 nM
IC50 [1]: 29.8 nM
Inhibition of cell adhesion [2]: active
Mean Number Colonies/10^4 cells ([3]; 1 nM): 1070
Mean Number Colonies/10^4 cells ([3]; 10 nM): 0
Mean Number Colonies/10^4 cells ([3]; 100 nM): 0
inhibition at 0.001 µM ([3]; Homo sapiens, 168 h, 1 nM, read-out: Inhibition of clonogenic growth): 29.8%
inhibition at 0.01 µM ([3]; Homo sapiens, 168 h, 10 nM, read-out: Inhibition of clonogenic growth): > 99.9%
inhibition at 0.1 µM ([3]; Homo sapiens, 168 h, 100 nM, read-out: Inhibition of clonogenic growth): > 99.9%
